From patent US10577382B2, “Fused heterocyclic compound” (TAKEDA PHARMACEUTICAL COMPANY LIMITED, priority 2016, dated 2020)

Tests used:
[1] = molecular target: T1, phosphorylated CLK2 protein (Ser98) (Homo sapiens, UniProt P49760); assay: In vitro CLK2 phosphorylation inhibitory action in HCT116 cells (western blot); assay type: cell-based; settings: 300 nM, 16 hours, relative to control group
T1 construct: endogenous in cells; host or cells: HCT116 (ATCC)
Protocol: 1000 μl (8,0000 cells/well) of a cell suspension of human colon adenocarcinoma cells HCT116 (purchased from ATCC) was seeded in a 12-well plate, and cultured at 37° C. for 2 days in a 5% CO2 gas incubator. The test compound solution was added to a final concentration of 300 nM, and the mixture was cultured for 16 hours. The plate was washed with PBS, a protein extract (10% glycerol, 1% sodium dodecyl sulfate, 62.5 mM Tris-HCl (pH: 7.5)) was then added to dissolve the cells, and the solution was treated at 95° C. for 5 minutes. Thereafter, the amount of protein was determined using BCA Protein Assay Kit (Thermo Fisher Scientific).
The amount of the protein in each sample was adjusted, SDS-PAGE was then performed, and the protein was transferred to a PVDF membrane using an iBlot (registered trademark) gel transfer system (Invitrogen). […] The membrane was washed in the same procedure as described above, a phosphorylated CLK2 protein, a MDM4 protein, a p53 protein and a p21 protein each labeled with an antibody were then made chemiluminescent using ImmunoStar ZETA (Wako Pure Chemical Industries, Ltd.), and luminescence was detected with LAS-3000 Image Analyzer (Fujifilm Corporation). The luminescence intensity was determined using Multi Gauge Ver. 3.1 (Fujifilm Corporation), and quantified. […]

[2] = test system: tumor derived from a myelogenous leukemia patient having a mutation in the SF3B1 gene; assay: Antitumor action on tumor-bearing model derived from patient with acute myeloid leukemia having SF3B1 gene mutation; assay type: in vivo; settings: 50 mg/kg orally twice a day on 2 days per week for 2 weeks; NOG female mice; tumor volume
Protocol: A tumor derived from a myelogenous leukemia patient having a mutation in the SF3B1 gene was subcutaneously transplanted into mice to establish a clinical tumor model capable of undergoing in vivo passage. A fragment of the tumor was subcutaneously transplanted into a six-week-old NOG female mice (CLEA Japan, Inc.) with a trocar, the tumor diameter of the developed tumor was measured 52 days after the transplantation, and the tumor volume was calculated in accordance with the following expression. Tumor volume=long diameter×short diameter×short diameter×(½)
Individuals with a tumor developed to a tumor volume of about 200 mm^3 were selected, and six mice per group were used for the experiment. A 0.5% methylcellulose solution (Wako Pure Chemical Industries, Ltd.) suspension of the test compound was orally administered at a dose of 50 mg/kg (10 mL/kg) twice a day on 2 days per week for 2 weeks. The tumor volume was chronologically measured on the day before the start of administration and every 3 to 4 days, the tumor diameter was finally measured on the day after completion of administration for 14 days, and the tumor volume was calculated.
The tumor growth in the test compound administration group with respect to the control administration group was calculated as a T/C value in accordance with the following expression. […]

[3] = molecular target: T2, CLK2 enzyme (Homo sapiens, UniProt P49760); assay: Measurement of CLK2 inhibitory activity (LANCE time-resolved fluorescence, ULight-labeled MBP peptide); assay type: biochemical; settings: compound 1 μM; ATP 1 mM; read-out: CLK2 activity inhibition ratio at compound concentration of 1 μM (ATP 1 mM)
T2 construct: purchased Thermo Fisher Scientific
T2 sequence (P49760 whole entry): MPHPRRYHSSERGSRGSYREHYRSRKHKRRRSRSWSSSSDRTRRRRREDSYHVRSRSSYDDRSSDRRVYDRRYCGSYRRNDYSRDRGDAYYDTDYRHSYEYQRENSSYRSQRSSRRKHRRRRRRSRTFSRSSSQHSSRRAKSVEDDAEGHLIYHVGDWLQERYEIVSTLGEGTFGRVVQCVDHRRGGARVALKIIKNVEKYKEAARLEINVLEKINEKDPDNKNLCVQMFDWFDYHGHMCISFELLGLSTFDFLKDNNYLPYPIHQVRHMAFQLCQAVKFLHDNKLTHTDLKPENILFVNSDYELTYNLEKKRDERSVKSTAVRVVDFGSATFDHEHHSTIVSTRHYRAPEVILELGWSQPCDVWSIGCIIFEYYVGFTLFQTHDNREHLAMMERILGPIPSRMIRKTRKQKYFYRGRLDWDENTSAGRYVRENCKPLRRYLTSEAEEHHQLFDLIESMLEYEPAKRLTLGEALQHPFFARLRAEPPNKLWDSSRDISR
Protocol: A test compound dissolved in DMSO was added to a reaction solution (50 mM HEPES (pH: 7.5), 10 mM MgCl2, 1 mM EGTA, 2 mM DTT, 0.01% Tween 20, 0.01% BSA) containing a CLK2 enzyme (Thermo Fisher Scientific) and an ULight-labeled MBP peptide (PerkinElmer), and the mixture was then reacted at room temperature for 10 minutes. An ATP solution was added to a final concentration of 1 mM to initiate an enzyme reaction, and the reaction was carried out at room temperature for 60 minutes. A europium-labeled anti-phosphorylated MBP antibody (PerkinElmer) and a LANCE Detection buffer (PerkinElmer) containing EDTA with a final concentration of 20 mM were added to stop the reaction, the mixture was left standing for 60 minutes, and the time-resolved fluorescence value (excitation 320 nm, and emission 615 nm and 665 nm) was measured by Envision (PerkinElmer). The inhibition ratio (%) of CLK2 by the test compound was calculated in accordance with the following expression. Inhibition ratio (%)=(1−(count of test compound−blank)÷(control−blank))×100
The count of the CLK2 enzyme reaction solution without addition of the compound was described as a control, and the count without addition of the compound and addition of the CLK2 enzyme was described as a blank. The concentration at which the inhibition ratio was 50% was defined as an IC50 value.

[4] = test system: HCT116 cells; assay: Growth inhibitory activity using HCT116 cells (Cell Titer-Glo); assay type: cell-based, human; settings: Homo sapiens, HCT-116, 72 h, compound 1 μM, 3 days, read-out: Cell growth inhibition ratio at compound concentration of 1 μM
Protocol: HCT 116 cells (ATCC) were seeded in a 384-well plate at a density of 6×10^2 cells/well, and cultured overnight in a cell culture medium McCoy's 5A (Thermo Fisher Scientific) containing 10% FBS (fetal bovine serum) and 1% penicillin/streptomycin. The dissolved test compound was added in the cell medium, and the cell medium was left standing in a CO2 incubator (37° C.) for 3 days. A Cell Titer-Glo solution (Promega Corporation) was added, the mixture was stirred at room temperature for 10 minutes, and the emission value was measured by Envision (PerkinElmer). The inhibition ratio (%) of HCT116 cell growth by the test compound was calculated in accordance with the following expression. Inhibition ratio (%)=(1−(count of test compound−blank)÷(control−blank))×100
The count of the HCT116 cell suspension without addition of the compound was described as a control, and the count without addition of the compound and addition of HCT116 cells was described as a blank. The concentration at which the inhibition ratio was 50% was defined as an IC50 value.

T1 sequence (P49760 whole entry): as above

COc1ncnn2ccc(-c3cnc4nc(C)n(Cc5nnc([C@@H](C)F)o5)c4c3)c12 [Example 286, 1-((5-((1R)-1-fluoroethyl)-1,3,4-oxadiazol-2-yl)methyl)-6-(4-methoxypyrrolo[2,1-f][1,2,4]triazin-5-yl)-2-methyl-1H-imidazo[4,5-b]pyridine]
Residual ratio (phosphorylated CLK2) [1]: 71.4% | T/C (%) [2]: −30.4% | inhibition at 1 µM [3]: 100% | inhibition at 1 µM [4]: 95%
